This note sets out measurements from the Bradley open melting point set (2014).

Several values for one entry are separate records, joined by “and”; a condition that tells them apart may be missing. Identical values can stand only once.

Turning to `C/C(=C\C(=O)O)c1ccc(C)cc1` [(2E)-3-(4-methylphenyl)but-2-enoic acid], the melting point worked out at 135 °C.

Compound `FC(F)(F)c1ccccc1CBr` [2-(trifluoromethyl)benzyl bromide] yielded a melting point of 29 °C.

Turning to `OCc1c(F)c(F)c(F)c(F)c1F` [2,3,4,5,6-Pentafluorobenzyl Alcohol], the melting point worked out at 37.5 °C. The compound `CCc1oc2ccccc2c1C(=O)c1ccc(O)cc1` [benzarone] returned a melting point of 124 °C. `N#CCCCCCCCCC#N` [sebaconitrile] yielded a melting point of 6 °C.

`CC(=O)Nc1ccc(/C=C/c2ccc(NC(C)=O)cc2)cc1` [N,N'-[(E)-ethene-1,2-diyldibenzene-4,1-diyl]diacetamide] gave a melting point of 219 °C.

`COC(=O)c1ccccc1S(N)(=O)=O` [2-(methoxycarbonyl)benzenesulfonamide]: the melting point is 124 °C. The compound `CC(C)CCCC(C)C1CC[C@@]2(C)[C@@]34CCC5[C@H](C)[C@@H](O)CC[C@]5(C)[C@]3(CC[C@]12C)O4` (stereo partly drawn) returned a melting point of 162 °C. Take `CCOC(=O)c1ccc(N)cc1` [Benzocaine, Ethyl 4-aminobenzoate]: the melting point is 90 °C. Under `C1CCCC1` [cyclopentane] stands -94 °C (2×) and -93.9 °C; under `CC(Cc1ccccc1)NC(C#N)c1ccccc1` (stereo not drawn) [amphetaminil], 85 °C. Take `CC1(C)C(=O)OC2=C(CCC/C2=C\c2ccccc2)C1c1ccccc1` (stereo not drawn): the melting point was determined as 156 °C. Under `O=[N+]([O-])c1ccccc1CBr` [2-nitrobenzyl bromide] stands 47 °C.

In turn, `CCOC(=O)c1cccc(C(=O)O)c1` [isophthalic acid, monoethyl ester] registered a melting point of 109 °C. Turning to `Clc1cc(Cl)c(Cl)c(Cl)c1` [1,2,3,5-tetrachlorobenzene], the melting point was 53 °C and 55 °C and 51.5 °C.

Take `CCN(Cc1ccc(Cl)nc1)/C(=C/[N+](=O)[O-])NC`: the melting point amounted to 72 °C. Take `CCC(C)CCC(C)O` (stereo not drawn) [5-methyl-2-heptanol]: the melting point was -120 °C. With `OB(O)c1cc(F)c(F)c(F)c1F` [2,3,4,5-tetrafluorobenzeneboronic acid], the melting point turned out to be 253 °C. Under `CCCCC(=O)O` [pentanoic acid] stands -34 °C; under `CNc1ccc(Cl)cc1C(=O)c1ccccc1` [5-chloro-2-methylaminobenzophenone], 96 °C; under `Cc1ccc(C)c(Br)c1` [2-bromo-p-xylene], 10 °C. `Cc1c(N(C)C)c(=O)n(-c2ccccc2)n1C` yielded a melting point of 108 °C. On to `Cc1ccccc1C` [o-xylene], for which the melting point is -25 °C. For the compound `C=C(CC(=O)O)C(=O)O` [itaconic acid], the melting point was found to be 167 °C. The compound `N[C@@H](CC(=O)O)C(=O)O` [L-Aspartic Acid] had a melting point of 230 °C. As for `C=Cc1ccccc1B(O)O` [2-vinylbenzeneboronic acid], the melting point came out at 106 °C. Regarding `COc1cc(Br)c(/C=C/C(=O)O)cc1OC` [2-bromo-4,5-dimethoxycinnamic acid], the melting point came out at 255 °C. Regarding `Cn1c(/C(C#N)=N/Nc2ccc(Cl)cc2Cl)nc2ccccc21`, the melting point turned out to be 161 °C.

As for `O=C(O)/C=C\C(=O)O` [(2Z)-But-2-enedioic acid], the melting point came to 138 °C. With `CC[C@@H]1CCC[C@@H]1CC` [cis-1,2-diethylcyclopentane], the melting point is -118 °C. With `C=CC(=O)OC` [methyl_acrylate], the melting point is -75 °C. Turning to `CC(=O)O/C(=C\C=C(\OC(C)=O)c1ccccc1)c1ccccc1` [(1E,3Z)-4-(acetyloxy)-1,4-diphenylbuta-1,3-dien-1-yl acetate], the melting point came to 126 °C. As to `CCCN(CCC)CCC` [N,N-Dipropylpropan-1-amine], the melting point was -93.5 °C. Compound `O=C(c1ccccc1)C(c1ccccc1)(c1ccccc1)c1ccccc1` [benzopinacolone] returned a melting point of 182 °C. `COC(=O)CCCCCCCCC(=O)OC` [Dimethyl sebacate] showed a melting point of 26.5 °C. In the case of `O=[N+]([O-])c1ccc(Cl)cc1[N+](=O)[O-]` [1-chloro-3,4-dinitrobenzene], the melting point was determined as 23 °C.

The compound `c1ccc2c(c1)cc1ccc3cccc4ccc2c1c34` [3,4-benzopyrene] displayed a melting point of 179 °C. The compound `N#Cc1cccnc1Oc1ccccc1` [3-cyano-2-phenoxypyridine] displayed a melting point of 108 °C.

Consider `Nc1cc(Br)ccc1Br` [2,5-dibromoaniline], for which the melting point amounted to 54 °C. Consider `Cc1cc(C)c(Br)c(C)c1Br` [2,4-dibromomesitylene], for which the melting point was found to be 60 °C.

In the case of `CC(CCC(=O)O)(c1ccc(O)cc1)c1ccc(O)cc1` [4,4-bis(4-hydroxyphenyl)valeric acid], the melting point was 173 °C. As for `CC(C)C[C@H](NC(=O)OCC1c2ccccc2-c2ccccc21)C(=O)O` [N-fmoc-L-leucine], the melting point came out at 154 °C.

`O=C(O)CC(F)(F)F` [3,3,3-trifluoropropionic acid] came in with a melting point of 9 °C. In turn, `Cc1cccc(C)c1[N+](=O)[O-]` [2-nitro-m-xylene] gave a melting point of 15 °C.

Consider `N#CC(Cl)(Cl)Cl` [Trichloroacetonitrile], for which the melting point is -42 °C. Under `N#Cc1cccc(C(=O)O)c1` [3-cyanobenzoic acid] stands 222 °C. As to `Cc1ccc([N+](=O)[O-])cc1Cl` [2-chloro-4-nitrotoluene], the melting point came out at 64 °C.

`CC(=O)CCC(=O)O` [Laevulinic Acid]: the melting point is 33 °C.

`O=C(O)/C=C/c1ccccc1O` [trans-2-hydroxycinnamic acid] showed a melting point of 217 °C.

As for `O=C1CN2CCOC2(c2ccccc2F)c2cc(Br)ccc2N1` (stereo not drawn) [haloxazolam], the melting point came out at 185 °C.

In turn, `Oc1c(F)c(F)c(F)c(F)c1F` [pentafluorophenol] gave a melting point of 34 °C. Compound `CC(=O)Nc1cccc2c(N)cccc12` [N-(5-aminonaphthalen-1-yl)acetamide] displayed a melting point of 166 °C.

In the case of `Nc1cccnc1N` [2,3-diaminopyridine], the melting point worked out at 112 °C. Take `C1CCCCC1` [cyclohexane]: the melting point was 7 °C. In turn, `O=C(O)/C(=C/c1ccc([N+](=O)[O-])cc1)c1ccccc1` [(E)-2-phenyl-3-(4-nitrophenyl)propenoic acid] showed a melting point of 216 °C. Under `CCC(=O)OC(Cc1ccccc1)(c1ccccc1)C(C)CN(C)C` (stereo not drawn) [propoxyphene] stands 75 °C; under `O=Cc1cc([N+](=O)[O-])cc([N+](=O)[O-])c1O` [3,5-dinitrosalicylaldehyde], 73 °C.

With `CCCCCCCCCCCCCC=O` [tetradecyl_aldehyde], the melting point is 24 °C.

As to `COC(=O)CC#N` [methyl cyanoacetate], the melting point is -23 °C. `NNC(=O)c1ccc(N)cc1` [4-aminobenzhydrazide] returned a melting point of 228 °C.

`NC1CONC1=O` (stereo not drawn) [Cycloserine] yielded a melting point of 147 °C.

As for `C1CC[C@H]2CCCC[C@H]2C1` [cis-decalin], the melting point is -43 °C.

Consider `C(=NNc1ccccc1)C(=NNc1ccccc1)c1cccc(C(C=NNc2ccccc2)=NNc2ccccc2)c1`, for which the melting point turned out to be 165 °C.

In general, melting point refers to the temperature of the solid-liquid transition.
